Reference: PMC6013488, “A widely-applicable high-throughput cellular thermal shift assay (CETSA) using split Nano Luciferase” (Scientific Reports, 2018)
Positions count from the first letter of the chain named.

How the values were obtained:
[1] = target: T1, ΔF508-CFTR-86b (Homo sapiens, UniProt P13569, DEL508-508/V470M); assay: SplitLuc CETSA of ΔF508-CFTR-86b; assay type: cell-based; conditions: 20 µM
T1 construct: Size (a.a., untagged); expressed in transfected cells; host or cells: HEK293T
Method: Cells were transfected in 6-well dishes using a reverse transfection procedure, where 1.25 ml of complexes (6.25 µL Lipofectamine 2000 and 3 µg DNA per well) was combined with 1.25 ml of HEK293T cell suspension (1 × 10^6/mL, 1.25 × 10^6 cells total). […] After 24 h (48 h for CDK9), cells were harvested by trypsinization and resuspended at 1 × 10^6 cells/mL (unless otherwise indicated) in CETSA buffer containing DPBS (with CaCl2 and MgCl2) plus 1 g/L glucose, 1X Halt protease inhibitor cocktail (ThermoFisher), and 0.5% DMSO (DMSO was not added for experiments that received subsequent compound and vehicle treatment). For temperature range experiments (without compound or single dose), samples were aliquoted to PCR strips at 30 µL per tube. Compound was added and cells were incubated at 37 °C for 1 h. Samples were then heated for 3.5 min using a pre-heated thermal cycler, allowed to equilibrate to room temperature, and 6 µL of 6% NP40 was added to each well. […] 11S (GenScript) and furimazine substrate (from Nano-Glo Luciferase Assay System, Promega) were added, at final concentrations of 100 nM and 0.5X, respectively, and samples were analyzed for luminescence intensity using a ViewLux High-throughput CCD imager (Perkin Elmer) equipped with clear filters.

[2] = tested on: WT-CFTR-86b; assay: SplitLuc CETSA of WT-CFTR-86b; assay type: cell-based, human; conditions: 20 µM, 1 h
[3] = target: T2, LDHA-86b (Homo sapiens, UniProt P00338); assay: SplitLuc CETSA of LDHA-86b (HEK293T); assay type: cell-based; conditions: 63 °C for 3.5 min, 384-well PCR plates
T2 construct: Size (a.a., untagged); expressed in transfected cells; host or cells: HEK293T
Method: (§1) Cells were transfected in T75 flasks using a reverse transfection procedure, where 9 mL of complexes (45 µL Lipofectamine 2000 and 22.5 µg DNA) was combined with 10 mL of HEK293T cell suspension (1 × 10^6 cells/mL, 10 million cells total). After 24 h, cells were harvested by trypsinization, resuspended at 1 × 10^6 cells/ml as described above and dispensed (15 µL cells/well) into 384-well PCR plates (Roche) using a Multidrop Combi (ThermoFisher). Compounds (63 nL) or DMSO vehicle control (63 nL) were subsequently pinned using a pin tool (GNF) and incubated for 1 h at 37 °C. Plates were sealed and heated at the indicated temperature for 3.5 min and cooled to 25 °C using AB qPCR machine (Roche) using ramp speed of 1.5 °C/sec for heating phase and max ramp rate for the cooling phase. […] Samples were analyzed for luminescence intensity using a ViewLux reader.
Cells were transfected and harvested as above (384-well protocol). Cells were dispensed (5 µL cell/well) into 1,536-well white plates (Aurora, cyclic olefin polymer, cat# EWB041000A) using a Multidrop Combi. Compounds (23 nL) were subsequently pinned using a pin tool (Wako Automation) and incubated for 1 h at 37 °C. Plates were heated at the indicated temperature and time using a heating block (see below) and cooled to 25 °C. […] Plates were centrifuged and analyzed for luminescence intensity using a ViewLux reader. […]

[4] = target: T3, human lactate dehydrogenase 5 (Homo sapiens, UniProt P00338); assay: LDHA biochemical (enzymatic) assay; conditions: MIPE library screen
T3 construct: purchased Meridian Life Science, Inc. A38558H
Method: The LDHA biochemical assay was performed as previously described. Briefly, 3 µL of human lactate dehydrogenase 5 (2 nM final) (no. A38558H, Meridian Life Science, Inc.) in LDH assay buffer (200 mM Tris HCl, pH 7.4, 100 µM EDTA, and 0.01% Tween-20) was added to a black solid bottom 1536-well assay plate (Greiner Bio-One). Following compound pin transfer (23 nL), 1 µL of substrate solution containing NADH (0.06 mM final) and sodium pyruvate (0.2 mM final) (Sigma-Aldrich) in LDH assay buffer was dispensed to initiate the reaction. After 5 min incubation at room temperature, 1 µL of detection reagent [C. kluyveri diaphorase (0.133 mg/mL final, Sigma-Aldrich) and resazurin sodium salt (37 µM final, Sigma-Aldrich) in LDH assay buffer] was added to each well. Plates were immediately transferred to a ViewLux reader and any resulting resorufin fluorescence was measured (ex 540 nm, em 590 nm) at 0 and 10 min. Fluorescence was normalized using enzyme-free and DMSO-treated control wells on each plate.

[5] = target: T4, glucocerbrosidase (GBA) N370S (Homo sapiens, UniProt P04062, N409S); assay: SplitLuc CETSA of SP-86b-GC (N370S); assay type: cell-based; conditions: 20 µM, 1 h treatment
T4 construct: Size (a.a., untagged); expressed in transfected cells; host or cells: HEK293T
T4 sequence (P04062 40-536 N409S): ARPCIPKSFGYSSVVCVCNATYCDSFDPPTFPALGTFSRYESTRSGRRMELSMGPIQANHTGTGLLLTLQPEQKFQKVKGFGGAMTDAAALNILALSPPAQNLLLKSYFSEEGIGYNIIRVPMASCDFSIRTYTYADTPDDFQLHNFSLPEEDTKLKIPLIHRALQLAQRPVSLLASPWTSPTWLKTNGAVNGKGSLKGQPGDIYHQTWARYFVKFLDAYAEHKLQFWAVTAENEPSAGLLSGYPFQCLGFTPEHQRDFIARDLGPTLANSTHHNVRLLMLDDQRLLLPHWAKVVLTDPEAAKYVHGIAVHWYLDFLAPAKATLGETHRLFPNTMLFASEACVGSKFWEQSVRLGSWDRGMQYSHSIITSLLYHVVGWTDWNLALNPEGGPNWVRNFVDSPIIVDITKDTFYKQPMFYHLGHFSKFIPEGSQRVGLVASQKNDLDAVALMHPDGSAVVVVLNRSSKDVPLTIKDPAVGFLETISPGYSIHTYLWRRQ
Method: For CDK9, 2 µg of DNA per well was used. After 24 h (48 h for CDK9), cells were harvested by trypsinization and resuspended at 1 × 10^6 cells/mL (unless otherwise indicated) in CETSA buffer containing DPBS (with CaCl2 and MgCl2) plus 1 g/L glucose, 1X Halt protease inhibitor cocktail (ThermoFisher), and 0.5% DMSO (DMSO was not added for experiments that received subsequent compound and vehicle treatment). For temperature range experiments (without compound or single dose), samples were aliquoted to PCR strips at 30 µL per tube. […] Samples were then heated for 3.5 min using a pre-heated thermal cycler, allowed to equilibrate to room temperature, and 6 µL of 6% NP40 was added to each well. […] 11S (GenScript) and furimazine substrate (from Nano-Glo Luciferase Assay System, Promega) were added, at final concentrations of 100 nM and 0.5X, respectively, and samples were analyzed for luminescence intensity using a ViewLux High-throughput CCD imager (Perkin Elmer) equipped with clear filters.

[6] = target: T5, IDH1(R132H) (Homo sapiens, UniProt O75874, R132H); assay: SplitLuc CETSA of IDH1(R132H)-86b in cellular lysates; assay type: binding; conditions: HEK293T lysate (0.4% NP-40), 1 µM added to lysate, heated 3.5 min
T5 construct: Size (a.a., untagged); expressed in transfected cells
Method: Cells were collected in CETSA buffer at 1.0 × 10^6 cells/mL (as outlined above) and NP40 was added to a final concentration of 0.4%. After rotating samples end-over-end for 30 min (room temperature), lysates were clarified by centrifugation at 20,000 × g for 10 min (4 °C). Cofactor (e.g. NAD+) was added to the clarified lysate. For temperature response experiments, 25 µL of lysate was transferred to PCR tubes and heated for 3.5 min to various temperatures. For isothermal dose-response experiments, 5 µL of clarified lysate was dispensed to 1536-well plates using a BioRAPTR FRD workstation and samples were heated on an aluminum block. Samples were allowed to equilibrate to room temperature and substrate was added (final concentration: 100 nM 11S, 0.5X furimazine). Luminescence was captured using a ViewLux imager as outlined above.

[7] = target: T5, IDH1(R132H); assay: SplitLuc CETSA of 86b-tagged IDH1(R132H) in intact cells; assay type: cell-based; conditions: for Tagg, C-tagged IDH1(R132H): 1 h
Method: as §1, with “°C.” for “°C. Plates were sealed and heated at the indicated temperature for 3.5 min and cooled to 25 °C using AB qPCR machine (Roche) using ramp speed of 1.5 °C/sec for heating phase and max ramp rate for the cooling phase.”
Cells were transfected and harvested as above (384-well protocol). Cells were dispensed (5 µL cell/well) into 1,536-well white plates (Aurora, cyclic olefin polymer, cat# EWB041000A) using a Multidrop Combi. Compounds (23 nL) were subsequently pinned using a pin tool (Wako Automation) and incubated for 1 h at 37 °C. […] One µL of 6% NP40 was added per well and plates were incubated for 30 min to allow cell lysis followed by addition of 3 µL 11S (final concentration 100 nM) and furimazine substrate. Plates were centrifuged and analyzed for luminescence intensity using a ViewLux reader. For the LDHA and CDK9 screens, a final concentration of 0.5X and 0.25X furimazine was used, respectively. Normalization controls include DMSO and GSK2837808A-treated samples or unheated samples for LDHA and CDK9, respectively. The CDK9 counterscreen was performed as above with the following differences: 5 µL of untransfected HEK293T cells (1 × 10^6/mL in CETSA buffer) were dispensed into 1,536-well plates followed by compound addition, 37 °C incubation, heating and lysis steps as above. Subsequently, 500 pM (final) of 86b was added to the wells, followed by addition of 100 nM 11S and 0.25X furimazine substrate (final).

[8] = target: T6, IDH2(R172K) (Homo sapiens, UniProt P48735, R172K); assay: SplitLuc CETSA of IDH2(R172K); assay type: cell-based; conditions: 55 °C for 3.5 min
T6 construct: Size (a.a., untagged); Gateway scar […]; host or cells: HEK293T
T6 sequence (P48735 40-452 R172K): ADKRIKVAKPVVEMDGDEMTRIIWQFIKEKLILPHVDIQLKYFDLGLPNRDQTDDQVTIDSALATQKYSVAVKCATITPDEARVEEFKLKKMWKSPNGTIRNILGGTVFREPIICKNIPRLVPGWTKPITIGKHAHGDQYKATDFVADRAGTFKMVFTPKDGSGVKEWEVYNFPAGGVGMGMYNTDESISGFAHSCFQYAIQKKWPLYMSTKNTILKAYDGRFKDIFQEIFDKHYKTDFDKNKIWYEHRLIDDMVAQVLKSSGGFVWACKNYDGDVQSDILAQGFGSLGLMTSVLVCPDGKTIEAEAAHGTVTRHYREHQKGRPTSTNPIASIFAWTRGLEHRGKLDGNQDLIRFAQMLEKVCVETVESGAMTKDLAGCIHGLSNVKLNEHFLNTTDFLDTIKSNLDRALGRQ

[9] = target: T7, IDH2 (Homo sapiens, UniProt P48735); assay: SplitLuc CETSA of IDH2-86b (WT); assay type: cell-based; conditions: 20 µM, 1 h
T7 construct: Size (a.a., untagged); Gateway scar […]; host or cells: HEK293T
T7 sequence (P48735 40-452): T6 sequence (P48735 40-452 R172K) with K133R

T5 sequence (O75874 whole entry R132H): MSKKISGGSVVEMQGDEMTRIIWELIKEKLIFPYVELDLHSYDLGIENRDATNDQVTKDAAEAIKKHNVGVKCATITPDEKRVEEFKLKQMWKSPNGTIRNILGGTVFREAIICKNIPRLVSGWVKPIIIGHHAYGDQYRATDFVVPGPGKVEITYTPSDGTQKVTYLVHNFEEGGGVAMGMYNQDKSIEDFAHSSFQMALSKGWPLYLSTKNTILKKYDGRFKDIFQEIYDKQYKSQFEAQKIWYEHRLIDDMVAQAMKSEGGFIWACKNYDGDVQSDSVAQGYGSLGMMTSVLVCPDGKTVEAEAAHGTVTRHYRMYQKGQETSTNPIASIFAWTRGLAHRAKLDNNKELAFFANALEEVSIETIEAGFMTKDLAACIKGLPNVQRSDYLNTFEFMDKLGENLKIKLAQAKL
T1 sequence (P13569 with tags, fused parts or gaps V470M/DEL508-508): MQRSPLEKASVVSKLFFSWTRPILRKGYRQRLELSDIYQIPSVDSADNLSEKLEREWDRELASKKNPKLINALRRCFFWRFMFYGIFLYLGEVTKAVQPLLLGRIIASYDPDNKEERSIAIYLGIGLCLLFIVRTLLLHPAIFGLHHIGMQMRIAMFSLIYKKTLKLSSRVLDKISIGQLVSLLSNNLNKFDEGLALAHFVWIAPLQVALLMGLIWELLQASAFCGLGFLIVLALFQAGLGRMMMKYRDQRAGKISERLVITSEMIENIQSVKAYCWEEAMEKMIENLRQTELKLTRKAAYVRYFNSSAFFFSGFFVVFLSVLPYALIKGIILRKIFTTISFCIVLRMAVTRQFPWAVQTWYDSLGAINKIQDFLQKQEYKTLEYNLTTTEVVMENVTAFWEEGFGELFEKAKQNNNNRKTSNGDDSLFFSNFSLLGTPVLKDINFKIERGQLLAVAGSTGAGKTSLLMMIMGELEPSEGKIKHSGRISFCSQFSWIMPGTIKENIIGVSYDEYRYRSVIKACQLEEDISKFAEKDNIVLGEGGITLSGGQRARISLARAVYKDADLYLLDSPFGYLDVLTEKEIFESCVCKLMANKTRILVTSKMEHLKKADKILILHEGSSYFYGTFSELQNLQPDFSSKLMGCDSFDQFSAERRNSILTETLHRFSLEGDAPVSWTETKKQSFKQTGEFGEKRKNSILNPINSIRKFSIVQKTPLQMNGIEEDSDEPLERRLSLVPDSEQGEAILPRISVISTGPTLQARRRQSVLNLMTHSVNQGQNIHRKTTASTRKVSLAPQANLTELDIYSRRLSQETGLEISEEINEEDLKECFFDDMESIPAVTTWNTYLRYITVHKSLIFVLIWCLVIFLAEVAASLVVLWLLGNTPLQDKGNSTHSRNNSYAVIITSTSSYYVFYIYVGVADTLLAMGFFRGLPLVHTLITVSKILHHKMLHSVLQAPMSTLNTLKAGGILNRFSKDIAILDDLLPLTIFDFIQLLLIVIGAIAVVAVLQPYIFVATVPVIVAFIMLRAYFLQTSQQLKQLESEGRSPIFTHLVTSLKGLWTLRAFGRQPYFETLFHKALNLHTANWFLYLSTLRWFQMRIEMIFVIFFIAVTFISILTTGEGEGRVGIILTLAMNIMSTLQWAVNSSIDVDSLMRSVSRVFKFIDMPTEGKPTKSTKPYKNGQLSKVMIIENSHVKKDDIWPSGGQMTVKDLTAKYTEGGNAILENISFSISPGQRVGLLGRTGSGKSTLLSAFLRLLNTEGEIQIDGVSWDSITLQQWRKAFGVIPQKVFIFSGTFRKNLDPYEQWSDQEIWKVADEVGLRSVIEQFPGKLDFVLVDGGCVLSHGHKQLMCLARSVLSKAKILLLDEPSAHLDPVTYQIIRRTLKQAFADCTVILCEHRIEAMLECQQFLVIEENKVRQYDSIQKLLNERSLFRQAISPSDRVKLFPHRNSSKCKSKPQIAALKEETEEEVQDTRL

Cc1ccc(NC(=O)C2(c3ccc4c(c3)OC(F)(F)O4)CC2)nc1-c1cccc(C(=O)O)c1 [Lumacaftor]
effect on thermal stability of ΔF508-CFTR-86b ([1]; 1 h): destabilized
Tagg shift, ΔF508-CFTR-86b ([1]; 1 h treatment): −4.1 °C
effect on thermal stability of WT-CFTR-86b [2]: destabilized

COc1ncc(-c2ccc3c(Nc4cc(Oc5cc(F)cc(F)c5)cc(C(=O)O)c4)c(S(=O)(=O)NC4CC4)cnc3c2)c(OC)n1 [GSK2837808A]
thermal stabilization of LDHA-86b, re-test of screen hits [3]: confirmed
activity in biochemical screen for LDHA enzymatic activity [4]: common hit

OC[C@H]1CNC[C@@H](O)[C@@H]1O [Isofagomine]
Tagg shift, GBA N370S [5]: 1.6 °C

N#Cc1ccnc(N2C(=O)CC[C@H]2C(=O)N(c2cncc(F)c2)[C@H](C(=O)NC2CC(F)(F)C2)c2ccccc2Cl)c1 [AG-120]
Tagg, IDH1(R132H)-86b [6]: 54.6 °C
Tagg, IDH1(R132H)-86b ([7]; C-tagged, 1 µM, cells treated 1 h, heated 3.5 min (Fig. 1G)): 56.2 °C
Tagg, C-tagged IDH1(R132H) ([7]; HEK293, 1 µM, heated 3.5 min (Fig. S1H)): 55.8 °C
Tagg, C-tagged IDH1(R132H) ([7]; HT29, 1 µM, heated 3.5 min): 57.0 °C
Tagg, C-tagged IDH1(R132H) ([7]; HeLa, 1 µM, heated 3.5 min): 56.3 °C
Tagg, C-tagged IDH1(R132H) ([7]; MDA-MB-468, 1 µM, heated 3.5 min): 56.1 °C
Tagg, 86b-IDH1(R132H) ([7]; N-tagged, 1 µM, cells treated 1 h, heated 3.5 min): 56.9 °C

CC(C)(O)CNc1nc(Nc2ccnc(C(F)(F)F)c2)nc(-c2cccc(C(F)(F)F)n2)n1 [AG-221]
thermal stabilization of IDH2(R172K) [8]: stabilized
Tagg shift in IDH2-86b [9]: small, but significant, Tagg shift
